Source: patent US12077503B2, “Substituted cyclic amides and their use as herbicides” (FMC CORPORATION, priority 2015, dated 2024)

How the values were obtained:
Assay type in all cases: in vivo
corn (Zea mays) = assay: Test A postemergence; conditions: for Corn plant response rating: 125 g ai/ha, postemergence, visual injury rating on 0 to 100 scale (0 no effect, 100 complete control), approx. 10 d; for Plant response rating, Corn: Postemergence, 500 g ai/ha, 0 to 100 scale where 0 is no effect and 100 is complete control
Summary of the method: (§1)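 Preemergence soil spray on seeded pots or post-emergence spray on 1–2 leaf plants, in loam–sand blend. Greenhouse ~10 d. Visual rating 0–100 against untreated plants.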

[1] = tested on: wheat (Triticum aestivum); assay: Test A postemergence; conditions: for Wheat plant response rating: 125 g ai/ha, postemergence, visual injury rating on 0 to 100 scale (0 no effect, 100 complete control), approx. 10 d; for Plant response rating, Wheat: Postemergence, 500 g ai/ha, 0 to 100 scale where 0 is no effect and 100 is complete control
Summary of the method: as §1

Kochia (Kochia scoparia) [2] = assay: Test A postemergence; conditions: for Kochia plant response rating: 125 g ai/ha, postemergence, visual injury rating on 0 to 100 scale (0 no effect, 100 complete control), approx. 10 d; for Plant response rating, Kochia: Postemergence, 500 g ai/ha, 0 to 100 scale where 0 is no effect and 100 is complete control
Summary of the method: as §1

[3] = tested on: ryegrass, Italian (Italian ryegrass, Lolium multiflorum); assay: Test A postemergence; conditions: for Ryegrass, Italian plant response rating: 125 g ai/ha, postemergence, visual injury rating on 0 to 100 scale (0 no effect, 100 complete control), approx. 10 d; for Plant response rating, Ryegrass, Italian: Postemergence, 500 g ai/ha, 0 to 100 scale where 0 is no effect and 100 is complete control
Summary of the method: as §1

[4] = tested on: giant foxtail (Setaria faberii); assay: Test A postemergence; conditions: for Foxtail, Giant plant response rating: 125 g ai/ha, postemergence, visual injury rating on 0 to 100 scale (0 no effect, 100 complete control), approx. 10 d; for Plant response rating, Foxtail, Giant: Postemergence, 500 g ai/ha, 0 to 100 scale where 0 is no effect and 100 is complete control
Summary of the method: as §1

[5] = tested on: blackgrass (Alopecurus myosuroides); assay: Test A postemergence; conditions: for Blackgrass plant response rating: 125 g ai/ha, postemergence, visual injury rating on 0 to 100 scale (0 no effect, 100 complete control), approx. 10 d; for Plant response rating, Blackgrass: Postemergence, 500 g ai/ha, 0 to 100 scale where 0 is no effect and 100 is complete control
Summary of the method: as §1

[6] = tested on: ragweed (common ragweed, Ambrosia elatior); assay: Test A postemergence; conditions: for Ragweed plant response rating: 125 g ai/ha, postemergence, visual injury rating on 0 to 100 scale (0 no effect, 100 complete control), approx. 10 d; for Plant response rating, Ragweed: Postemergence, 500 g ai/ha, 0 to 100 scale where 0 is no effect and 100 is complete control
Summary of the method: as §1

[7] = tested on: pigweed (Amaranthus retroflexus); assay: Test A postemergence; conditions: for Pigweed plant response rating: 125 g ai/ha, postemergence, visual injury rating on 0 to 100 scale (0 no effect, 100 complete control), approx. 10 d; for Plant response rating, Pigweed: Postemergence, 500 g ai/ha, 0 to 100 scale where 0 is no effect and 100 is complete control
Summary of the method: as §1

[8] = tested on: Galium (catchweed bedstraw, Galium aparine); assay: Test A postemergence; conditions: for Galium plant response rating: 125 g ai/ha, postemergence, visual injury rating on 0 to 100 scale (0 no effect, 100 complete control), approx. 10 d; for Plant response rating, Galium: Postemergence, 500 g ai/ha, 0 to 100 scale where 0 is no effect and 100 is complete control
Summary of the method: as §1

[9] = tested on: barnyardgrass (Echinochloa crus-galli); assay: Test A postemergence; conditions: for Barnyardgrass plant response rating: 125 g ai/ha, postemergence, visual injury rating on 0 to 100 scale (0 no effect, 100 complete control), approx. 10 d; for Plant response rating, Barnyardgrass: Postemergence, 500 g ai/ha, 0 to 100 scale where 0 is no effect and 100 is complete control
Summary of the method: as §1

Kochia (Kochia scoparia) [10] = assay: Test A preemergence; conditions: Preemergence; for Plant response rating, Kochia: 125 g ai/ha, visual injury after approximately 10 d, 0 to 100 scale where 0 is no effect and 100 is complete control; for Kochia plant response rating (0 to 100 scale, 0 is no effect, 100 is complete control): 500 g ai/ha, visual injury approx. 10 d
Summary of the method: as §1

[11] = tested on: ryegrass, Italian (Italian ryegrass, Lolium multiflorum); assay: Test A preemergence; conditions: Preemergence; for Plant response rating, Ryegrass, Italian: 125 g ai/ha, visual injury after approximately 10 d, 0 to 100 scale where 0 is no effect and 100 is complete control; for Ryegrass, Italian plant response rating (0 to 100 scale, 0 is no effect, 100 is complete control): 500 g ai/ha, visual injury approx. 10 d
Summary of the method: as §1

[12] = tested on: giant foxtail (Setaria faberii); assay: Test A preemergence; conditions: Preemergence; for Plant response rating, Foxtail, Giant: 125 g ai/ha, visual injury after approximately 10 d, 0 to 100 scale where 0 is no effect and 100 is complete control; for Foxtail, Giant plant response rating (0 to 100 scale, 0 is no effect, 100 is complete control): 500 g ai/ha, visual injury approx. 10 d
Summary of the method: as §1

[13] = tested on: ragweed (common ragweed, Ambrosia elatior); assay: Test A preemergence; conditions: Preemergence; for Plant response rating, Ragweed: 125 g ai/ha, visual injury after approximately 10 d, 0 to 100 scale where 0 is no effect and 100 is complete control; for Ragweed plant response rating (0 to 100 scale, 0 is no effect, 100 is complete control): 500 g ai/ha, visual injury approx. 10 d
Summary of the method: as §1

[14] = tested on: pigweed (Amaranthus retroflexus); assay: Test A preemergence; conditions: Preemergence; for Plant response rating, Pigweed: 125 g ai/ha, visual injury after approximately 10 d, 0 to 100 scale where 0 is no effect and 100 is complete control; for Pigweed plant response rating (0 to 100 scale, 0 is no effect, 100 is complete control): 500 g ai/ha, visual injury approx. 10 d
[15] = tested on: barnyardgrass (Echinochloa crus-galli); assay: Test A preemergence; conditions: Preemergence; for Plant response rating, Barnyardgrass: 125 g ai/ha, visual injury after approximately 10 d, 0 to 100 scale where 0 is no effect and 100 is complete control; for Barnyardgrass plant response rating (0 to 100 scale, 0 is no effect, 100 is complete control): 500 g ai/ha, visual injury approx. 10 d
Summary of the method: as §1

rice (Oryra sativa) = assay: Test B flooded paddy test; conditions: Flood, 250 g ai/ha; 0 to 100 scale where 0 is no effect and 100 is complete control; 13 to 15 d
Summary of the method: (§2)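 Response scored visually against untreated controls, 0 = no effect and 100 = complete control, 13–15 d after treatment in the greenhouse. Compounds added to paddy water held 3 cm above soil surface. Treatment given at 2-leaf stage.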

[16] = tested on: ducksalad (Heteranthera limosa); assay: Test B flooded paddy test; conditions: Flood, 250 g ai/ha; 0 to 100 scale where 0 is no effect and 100 is complete control; 13 to 15 d
Summary of the method: as §2

[17] = tested on: sedge, umbrella (small-flower umbrella sedge, Cyperus difformis); assay: Test B flooded paddy test; conditions: Flood, 250 g ai/ha; 0 to 100 scale where 0 is no effect and 100 is complete control; 13 to 15 d
Summary of the method: as §2

[18] = tested on: barnyardgrass (Echinochloa crus-galli); assay: Test B flooded paddy test; conditions: Flood, 250 g ai/ha; 0 to 100 scale where 0 is no effect and 100 is complete control; 13 to 15 d
Summary of the method: as §2

Compound: O=C(Nc1ccccc1F)C1C(=O)N(CC=CBr)CC1c1cccc(C(F)(F)F)c1 (stereo not drawn) [Compound 484]
- Corn plant response rating (corn (Zea mays)): 0
- Plant response rating, Corn (corn (Zea mays)): 0
- Wheat plant response rating [1]: 0
- Plant response rating, Wheat [1]: 0
- Kochia plant response rating (Kochia (Kochia scoparia) [2]): 0
- Plant response rating, Kochia (Kochia (Kochia scoparia) [2]): 0
- Ryegrass, Italian plant response rating [3]: 0
- Plant response rating, Ryegrass, Italian [3]: 0
- Foxtail, Giant plant response rating [4]: 0
- Plant response rating, Foxtail, Giant [4]: 40
- Blackgrass plant response rating [5]: 0
- Plant response rating, Blackgrass [5]: 0
- Ragweed plant response rating [6]: 0
- Plant response rating, Ragweed [6]: 0
- Pigweed plant response rating [7]: 0
- Plant response rating, Pigweed [7]: 0
- Galium plant response rating [8]: 0
- Plant response rating, Galium [8]: 0
- Barnyardgrass plant response rating [9]: 0
- Plant response rating, Barnyardgrass [9]: 50
- Plant response rating, Kochia (Kochia (Kochia scoparia) [10]): 0
- Kochia plant response rating (0 to 100 scale, 0 is no effect, 100 is complete control) (Kochia (Kochia scoparia) [10]): 0
- Plant response rating, Ryegrass, Italian [11]: 0
- Ryegrass, Italian plant response rating (0 to 100 scale, 0 is no effect, 100 is complete control) [11]: 0
- Plant response rating, Foxtail, Giant [12]: 50
- Foxtail, Giant plant response rating (0 to 100 scale, 0 is no effect, 100 is complete control) [12]: 90
- Plant response rating, Ragweed [13]: 0
- Ragweed plant response rating (0 to 100 scale, 0 is no effect, 100 is complete control) [13]: 0
- Plant response rating, Pigweed [14]: 0
- Pigweed plant response rating (0 to 100 scale, 0 is no effect, 100 is complete control) [14]: 0
- Plant response rating, Barnyardgrass [15]: 0
- Barnyardgrass plant response rating (0 to 100 scale, 0 is no effect, 100 is complete control) [15]: 40
- Plant response rating, Rice (rice (Oryra sativa)): 0
- Plant response rating, Ducksalad [16]: 0
- Plant response rating, Sedge, Umbrella [17]: 0
- Plant response rating, Barnyardgrass [18]: 0

Compound: O=C(Nc1cccc(F)c1F)C1C(=O)N(CC=CBr)CC1c1cccc(C(F)(F)F)c1 (stereo not drawn) [Compound 486]
- Corn plant response rating (corn (Zea mays)): 0
- Plant response rating, Corn (corn (Zea mays)): 0
- Wheat plant response rating [1]: 0
- Plant response rating, Wheat [1]: 0
- Kochia plant response rating (Kochia (Kochia scoparia) [2]): 0
- Plant response rating, Kochia (Kochia (Kochia scoparia) [2]): 0
- Ryegrass, Italian plant response rating [3]: 0
- Plant response rating, Ryegrass, Italian [3]: 0
- Foxtail, Giant plant response rating [4]: 0
- Plant response rating, Foxtail, Giant [4]: 50
- Blackgrass plant response rating [5]: 0
- Plant response rating, Blackgrass [5]: 0
- Ragweed plant response rating [6]: 0
- Plant response rating, Ragweed [6]: 0
- Pigweed plant response rating [7]: 0
- Plant response rating, Pigweed [7]: 40
- Galium plant response rating [8]: 0
- Plant response rating, Galium [8]: 20
- Barnyardgrass plant response rating [9]: 0
- Plant response rating, Barnyardgrass [9]: 40
- Plant response rating, Kochia (Kochia (Kochia scoparia) [10]): 0
- Kochia plant response rating (0 to 100 scale, 0 is no effect, 100 is complete control) (Kochia (Kochia scoparia) [10]): 0
- Plant response rating, Ryegrass, Italian [11]: 0
- Ryegrass, Italian plant response rating (0 to 100 scale, 0 is no effect, 100 is complete control) [11]: 20
- Plant response rating, Foxtail, Giant [12]: 60
- Foxtail, Giant plant response rating (0 to 100 scale, 0 is no effect, 100 is complete control) [12]: 90
- Plant response rating, Ragweed [13]: 0
- Ragweed plant response rating (0 to 100 scale, 0 is no effect, 100 is complete control) [13]: 0
- Plant response rating, Pigweed [14]: 0
- Pigweed plant response rating (0 to 100 scale, 0 is no effect, 100 is complete control) [14]: 20
- Plant response rating, Barnyardgrass [15]: 30
- Barnyardgrass plant response rating (0 to 100 scale, 0 is no effect, 100 is complete control) [15]: 70
- Plant response rating, Rice (rice (Oryra sativa)): 0
- Plant response rating, Ducksalad [16]: 0
- Plant response rating, Sedge, Umbrella [17]: 0
- Plant response rating, Barnyardgrass [18]: 0
